# In PubChem BioAssay (NCI):
#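 GI50: concentration for 50% inhibition of growth. TGI: total growth inhibition.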
# Experiments:
# Assay in all cases: DTP human tumour cell line panel, 384-well format
# 786-0 renal = test system: 786-0 renal
# A498 renal = test system: A498 renal
# A549 NSCLC = test system: A549 NSCLC
# ACHN renal = test system: ACHN renal
# BT-549 breast = test system: BT-549 breast
# CAKI-1 renal = test system: CAKI-1 renal
# CCRF-CEM leukemia = test system: CCRF-CEM leukemia
# COLO 205 colon = test system: COLO 205 colon
# DU-145 prostate = test system: DU-145 prostate
# EKVX NSCLC = test system: EKVX NSCLC
# HCC-2998 colon = test system: HCC-2998 colon
# HCT-116 colon = test system: HCT-116 colon
# HCT-15 colon = test system: HCT-15 colon
# HL-60(TB) leukemia = test system: HL-60(TB) leukemia
# HOP-62 NSCLC = test system: HOP-62 NSCLC
# HOP-92 NSCLC = test system: HOP-92 NSCLC
# HS 578T breast = test system: HS 578T breast
# HT29 colon = test system: HT29 colon
# IGROV1 ovarian = test system: IGROV1 ovarian
# KM12 colon = test system: KM12 colon
# LOX IMVI melanoma = test system: LOX IMVI melanoma
# M14 melanoma = test system: M14 melanoma
# MALME-3M melanoma = test system: MALME-3M melanoma
# MCF7 breast = test system: MCF7 breast
# MDA-MB-231 breast = test system: MDA-MB-231 breast
# MDA-MB-435 melanoma = test system: MDA-MB-435 melanoma
# MDA-MB-468 breast = test system: MDA-MB-468 breast
# MOLT-4 leukemia = test system: MOLT-4 leukemia
# NCI-H226 lung = test system: NCI-H226 lung
# NCI-H23 lung = test system: NCI-H23 lung
# NCI-H322M lung = test system: NCI-H322M lung
# NCI-H460 NSCLC = test system: NCI-H460 NSCLC
# NCI-H522 lung = test system: NCI-H522 lung
# NCI/ADR-RES ovarian = test system: NCI/ADR-RES ovarian
# OVCAR-3 ovarian = test system: OVCAR-3 ovarian
# OVCAR-4 ovarian = test system: OVCAR-4 ovarian
# OVCAR-5 ovarian = test system: OVCAR-5 ovarian
# OVCAR-8 ovarian = test system: OVCAR-8 ovarian
# PC-3 prostate = test system: PC-3 prostate
# RPMI-8226 leukemia = test system: RPMI-8226 leukemia
# RXF 393 renal = test system: RXF 393 renal
# SF-268 CNS = test system: SF-268 CNS
# SF-295 CNS = test system: SF-295 CNS
# SF-539 CNS = test system: SF-539 CNS
# SK-MEL-28 melanoma = test system: SK-MEL-28 melanoma
# SK-MEL-5 melanoma = test system: SK-MEL-5 melanoma
# SK-OV-3 ovarian = test system: SK-OV-3 ovarian
# SN12C renal = test system: SN12C renal
# SNB-19 CNS = test system: SNB-19 CNS
# SNB-75 CNS = test system: SNB-75 CNS
# SW-620 colon = test system: SW-620 colon
# T-47D breast = test system: T-47D breast
# TK-10 renal = test system: TK-10 renal
# U251 glioblastoma = test system: U251 glioblastoma
# UACC-257 melanoma = test system: UACC-257 melanoma
# UACC-62 melanoma = test system: UACC-62 melanoma
# UO-31 renal = test system: UO-31 renal
compound,measurement,setting,value
C[C@H]1Oc2cc(cnc2N)-c2c(nn(C)c2C#N)CN(C)C(=O)c2ccc(F)cc21,GI50,786-0 renal,49.7 µM
same,TGI,786-0 renal,> 100 µM
same,GI50,A498 renal,> 95.6 µM
same,TGI,A498 renal,> 100 µM
same,GI50,A549 NSCLC,22 µM
same,TGI,A549 NSCLC,> 100 µM
same,GI50,ACHN renal,11.4 µM
same,TGI,ACHN renal,> 24.9 µM
same,GI50,BT-549 breast,> 100 µM
same,TGI,BT-549 breast,> 100 µM
same,GI50,CAKI-1 renal,26.5 µM
same,TGI,CAKI-1 renal,> 100 µM
same,GI50,CCRF-CEM leukemia,57.1 µM
same,TGI,CCRF-CEM leukemia,> 100 µM
same,GI50,COLO 205 colon,11.1 µM
same,TGI,COLO 205 colon,> 84.1 µM
same,GI50,DU-145 prostate,49.8 µM
same,TGI,DU-145 prostate,> 100 µM
same,GI50,EKVX NSCLC,9.26 µM
same,TGI,EKVX NSCLC,44.1 µM
same,GI50,HCC-2998 colon,> 100 µM
same,TGI,HCC-2998 colon,> 100 µM
same,GI50,HCT-116 colon,32.1 µM
same,TGI,HCT-116 colon,> 100 µM
same,GI50,HCT-15 colon,91.9 µM
same,TGI,HCT-15 colon,> 100 µM
same,GI50,HL-60(TB) leukemia,63.8 µM
same,TGI,HL-60(TB) leukemia,> 100 µM
same,GI50,HOP-62 NSCLC,15.7 µM
same,TGI,HOP-62 NSCLC,> 100 µM
same,GI50,HOP-92 NSCLC,11 µM
same,TGI,HOP-92 NSCLC,67.6 µM
same,GI50,HS 578T breast,19.9 µM
same,TGI,HS 578T breast,> 100 µM
same,GI50,HT29 colon,18 µM
same,TGI,HT29 colon,> 100 µM
same,GI50,IGROV1 ovarian,26.1 µM
same,TGI,IGROV1 ovarian,> 83.6 µM
same,GI50,KM12 colon,0.364 µM
same,TGI,KM12 colon,> 100 µM
same,GI50,LOX IMVI melanoma,> 71.9 µM
same,TGI,LOX IMVI melanoma,> 100 µM
same,GI50,M14 melanoma,56.3 µM
same,TGI,M14 melanoma,> 100 µM
same,GI50,MALME-3M melanoma,26.2 µM
same,TGI,MALME-3M melanoma,> 100 µM
same,GI50,MCF7 breast,17.5 µM
same,TGI,MCF7 breast,> 100 µM
same,GI50,MDA-MB-231 breast,14.6 µM
same,TGI,MDA-MB-231 breast,84.5 µM
same,GI50,MDA-MB-435 melanoma,> 100 µM
same,TGI,MDA-MB-435 melanoma,> 100 µM
same,GI50,MDA-MB-468 breast,23.8 µM
same,TGI,MDA-MB-468 breast,> 86.2 µM
same,GI50,MOLT-4 leukemia,4.84 µM
same,TGI,MOLT-4 leukemia,18.8 µM
same,GI50,NCI-H226 lung,23 µM
same,TGI,NCI-H226 lung,> 73.1 µM
same,GI50,NCI-H23 lung,24.3 µM
same,TGI,NCI-H23 lung,> 100 µM
same,GI50,NCI-H322M lung,23.6 µM
same,TGI,NCI-H322M lung,> 78.6 µM
same,GI50,NCI-H460 NSCLC,35.7 µM
same,TGI,NCI-H460 NSCLC,> 100 µM
same,GI50,NCI-H522 lung,33.7 µM
same,TGI,NCI-H522 lung,99.5 µM
same,GI50,NCI/ADR-RES ovarian,41.6 µM
same,TGI,NCI/ADR-RES ovarian,> 100 µM
same,GI50,OVCAR-3 ovarian,> 88 µM
same,TGI,OVCAR-3 ovarian,> 100 µM
same,GI50,OVCAR-4 ovarian,> 100 µM
same,TGI,OVCAR-4 ovarian,> 100 µM
same,GI50,OVCAR-5 ovarian,37.7 µM
same,TGI,OVCAR-5 ovarian,> 100 µM
same,GI50,OVCAR-8 ovarian,> 100 µM
same,TGI,OVCAR-8 ovarian,> 100 µM
same,GI50,PC-3 prostate,> 100 µM
same,TGI,PC-3 prostate,> 100 µM
same,GI50,RPMI-8226 leukemia,57 µM
same,TGI,RPMI-8226 leukemia,> 100 µM
same,GI50,RXF 393 renal,11.6 µM
same,TGI,RXF 393 renal,> 63.1 µM
same,GI50,SF-268 CNS,47.3 µM
same,TGI,SF-268 CNS,> 100 µM
same,GI50,SF-295 CNS,72.8 µM
same,TGI,SF-295 CNS,> 100 µM
same,GI50,SF-539 CNS,> 100 µM
same,TGI,SF-539 CNS,> 100 µM
same,GI50,SK-MEL-28 melanoma,> 79.1 µM
same,TGI,SK-MEL-28 melanoma,> 100 µM
same,GI50,SK-MEL-5 melanoma,50.2 µM
same,TGI,SK-MEL-5 melanoma,> 100 µM
same,GI50,SK-OV-3 ovarian,68.2 µM
same,TGI,SK-OV-3 ovarian,> 100 µM
same,GI50,SN12C renal,61.6 µM
same,TGI,SN12C renal,> 100 µM
same,GI50,SNB-19 CNS,> 100 µM
same,TGI,SNB-19 CNS,> 100 µM
same,GI50,SNB-75 CNS,34.4 µM
same,TGI,SNB-75 CNS,> 84.7 µM
same,GI50,SW-620 colon,> 100 µM
same,TGI,SW-620 colon,> 100 µM
same,GI50,T-47D breast,57.2 µM
same,TGI,T-47D breast,> 100 µM
same,GI50,TK-10 renal,> 92.9 µM
same,TGI,TK-10 renal,> 100 µM
same,GI50,U251 glioblastoma,> 100 µM
same,TGI,U251 glioblastoma,> 100 µM
same,GI50,UACC-257 melanoma,> 100 µM
same,TGI,UACC-257 melanoma,> 100 µM
same,GI50,UACC-62 melanoma,32.8 µM
same,TGI,UACC-62 melanoma,> 100 µM
same,GI50,UO-31 renal,37.3 µM
same,TGI,UO-31 renal,> 54 µM
